From US20090215684A1, “Use of BPI Protein for Treatment of Diseases” (BRIDGE BIORESEARCH LIMITED, priority 2005, published 2009) come the findings set out here.

In test [1] the test system is subjects with glucose intolerance. The test is described as follows: Randomized clinical study of metformin vs placebo in glucose-intolerant patients: anthropometric and fasting variables. Conditions: mean ± SD; for BMI: 9 patients. It is filed as in vivo, human. The source says:
The objective of this study was to evaluate the effects of changing insulin action—after treatment with an insulin sensitizer (metformin)—on circulating BPI in subjects with glucose intolerance.
Patients were recruited from the Diabetes and Endocrinology Unit at Hospital de Girona Dr Josep Trueta. They were offered participation in the study if they were between 30 and 65 years old and fulfilled all the inclusion criteria. Men and women were both included, but women only when surgical sterility was documented or when they were post-menopausal or when a reliable method of contraception was used. The inclusion criteria were as follows: a) body mass index (BMI) between 22 and 35 kg/m^2, b) impaired glucose tolerance by an OGTT performed two months before the beginning of the study or a fasting glucose level between 110 and 140 mg/dl, c) stability of diet and physical exercise within the past two months. All subjects signed a written informed consent.
(§1) The clinical study was performed in accordance with the Declaration of Helsinki (revised version of Hong Kong 1989) as well as with the EC Note for guidance “Good clinical practice for studies on medicinal products in the European Community”. It was approved by the local Ethics Committee and the Spanish Health Department (Clinical assay number: 97/337). Thirty-one patients were randomized either to placebo or metformin according to the randomization tablets supply generated by LIPHA using the computer program RANCODE +3.1. A dietician with the aim of assuring a stable weight gave general diabetic dietary advice at the beginning of the study. Two months after the first visit (visit 2) subjects started taking metformin or placebo, one tablet per day (850 mg) for the first week and then two tablets per day (one after breakfast and one after dinner) for the following eleven weeks. Drug compliance was checked by tablet counts and any side effect was recorded at visit 3 (6 weeks after randomization) and at visit 4 (at the end of the study).
Out of 118 pre-selected subjects, 31 patients were randomized for the study (16 to metformin and 15 to placebo). Six patients ([…] and 3 on placebo) discontinued early and two non-compliant patients were excluded (both in metformin group). 21 patients (9 on metformin and 12 on placebo) were finally analyzed.

Test [2] shares this test system. The experiment in a line: Oral glucose tolerance test (OGTT) in the metformin study. The conditions noted are these: mean ± SD. It is filed as in vivo, human. As to the method:
The clinical study was performed in accordance with the Declaration of Helsinki (revised version of Hong Kong 1989) as well as with the EC Note for guidance “Good clinical practice for studies on medicinal products in the European Community”. It was approved by the local Ethics Committee and the Spanish Health Department (Clinical assay number: 97/337). Thirty-one patients were randomized either to placebo or metformin according to the randomization tablets supply generated by LIPHA using the computer program RANCODE +3.1. A dietician with the aim of assuring a stable weight gave general diabetic dietary advice at the beginning of the study. […] Drug compliance was checked by tablet counts and any side effect was recorded at visit 3 (6 weeks after randomization) and at visit 4 (at the end of the study).
(§2) To assess glucose tolerance, an OGTT was performed after an overnight fast. Insulin sensitivity was evaluated by HOMA (Homeostasis model assessment) using basal (mean of three samples obtained at 5 minutes interval) glucose and insulin (Bonora E, et al., Diabetes Care, 2000, vol. 23, pp. 57-63). Beta cell function was calculated by CIGMA (Continuous infusion of glucose with model assessment) from achieved C-peptide and glucose values (Hosker J P, et al., Diabetologia 1985, vol. 28, pp. 401-11). […]

Test [3] shares this test system. The experiment in a line: Insulin sensitivity by HOMA (Homeostasis model assessment) in the metformin study. It is filed as in vivo, human. The conditions noted are these: mean ± SD. On the procedure:
as §1
as §2, with “401-11). CIGMA test consists of a continuous intravenous infusion of 5-mg glucose per kg of ideal body weight.min^−1 using a 10 g.dl^−1 glucose solution with model assessment of glucose, insulin and C-peptide (RIA, Byk-Sangtec Diagnostica, Dietzenbach, Germany) values obtained before (basal value, mean value of three samples obtained at 5 minute intervals) and at the end (achieved value, mean value of samples obtained at 50, 55 and 60 minutes) of the test.” for “401-11).”

Test [4] has the same test system. The experiment in a line: CIGMA (continuous infusion of glucose with model assessment) in the metformin study. In kind it is in vivo, human. The conditions noted are these: mean ± SD; for Achieved C-peptide / Achieved glucose / Achieved insulin: after intravenous glucose. On the procedure: as §1
To assess glucose tolerance, an OGTT was performed after an overnight fast. Insulin sensitivity was evaluated by HOMA (Homeostasis model assessment) using basal (mean of three samples obtained at 5 minutes interval) glucose and insulin (Bonora E, et al., Diabetes Care, 2000, vol. 23, pp. 57-63). Beta cell function was calculated by CIGMA (Continuous infusion of glucose with model assessment) from achieved C-peptide and glucose values (Hosker J P, et al., Diabetologia 1985, vol. 28, pp. 401-11). CIGMA test consists of a continuous intravenous infusion of 5-mg glucose per kg of ideal body weight.min^−1 using a 10 g.dl^−1 glucose solution with model assessment of glucose, insulin and C-peptide (RIA, Byk-Sangtec Diagnostica, Dietzenbach, Germany) values obtained before (basal value, mean value of three samples obtained at 5 minute intervals) and at the end (achieved value, mean value of samples obtained at 50, 55 and 60 minutes) of the test. C-peptide detection level was 0.1 ng/ml and had intra- and inter-assay coefficients of variation of 2.6% and 4.4%.

Another test relates to BPI. The experiment in a line: Circulating plasma BPI (BPI ELISA) in the metformin study. It is filed as in vivo, human. On the procedure:
BPI ELISA: Plasma EDTA BPI concentrations were measured by a sandwich enzyme-linked immunosorbent assay (Human BPI ELISA kit, HyCult biotechnology b.v.; P B Uden, The Netherlands) according to the manufacturer's instructions. The kit has an assay sensitivity of 250 pg/ml. […] The clinical study was performed in accordance with the Declaration of Helsinki (revised version of Hong Kong 1989) as well as with the EC Note for guidance “Good clinical practice for studies on medicinal products in the European Community”. It was approved by the local Ethics Committee and the Spanish Health Department (Clinical assay number: 97/337). Thirty-one patients were randomized either to placebo or metformin according to the randomization tablets supply generated by LIPHA using the computer program RANCODE +3.1. A dietician with the aim of assuring a stable weight gave general diabetic dietary advice at the beginning of the study. Two months after the first visit (visit 2) subjects started taking metformin or placebo, one tablet per day (850 mg) for the first week and then two tablets per day (one after breakfast and one after dinner) for the following eleven weeks. Drug compliance was checked by tablet counts and any side effect was recorded at visit 3 (6 weeks after randomization) and at visit 4 (at the end of the study).
In general terms: ELISA stands for enzyme-linked immunosorbent assay.

The subject of another test is ob/ob mice. The experiment in a line: Effects of administration of BPI on blood glucose concentration in ob/ob mice. It is filed as in vivo. On the procedure:
The objective of this study was to evaluate the effects of administration of BPI on glucose concentration on ob/ob mice
Obese mice ob/ob were treated for 6 days with a daily intraperitoneal dose of 2.5 ng of human purified BPI per gram of body weight or vehicle (control mice). Before the treatment both groups (control and BPI treated) presented a high glycemia and no differences were identified between both groups (342±33 and 342±38 mg/dl, respectively).

[5] abbreviates: metformin, 12 weeks, p<0.05 within group.
Where [6] appears, read: metformin, 12 weeks, p<0.05 within group, listed as metformin.

“And” between values parts separate entries of the source, which are not always exact repeats. Equal values may be shown once. Marks after values point to notes of the source that are not given here.

Turning to `CN(C)C(=N)N=C(N)N` [Metformin, metformin], the BMI is given as 27.7 ± 4.3 Kg/m^2 in test [1] (metformin 850 mg tablets, two per day, 12 weeks) and 28.0 ± 4.5 Kg/m^2 in test [1] (metformin group, baseline (before treatment)). Also, the “Fasting C-peptide” value was 2.5 ± 0.7 ng/mL in test [1] (metformin group, baseline); 1.8 ± 0.5^b ng/ml in test [1] (setting [5]); “statistically lower” in test [1] (setting [6]). In addition, the Fasting glucose was 110.1 ± 9.9 mg/dL in test [1] (metformin group, baseline); 98.9 ± 15.7^a mg/dl in test [1] (metformin, 12 weeks, p<0.01 within group); “decreased” in test [1] (metformin, 12 weeks, p<0.01 within group, listed as metformin). The Fasting insulin in test [1] (metformin group, baseline) is given as 11.6 ± 5.4 mU/l; in test [1] (setting [5]), 8.8 ± 3.5^b mU/l; in test [1] (setting [6]), “statistically lower”. Further, the Waist circumference in test [1] (metformin group, baseline) is 95.9 ± 11.5; in test [1] (metformin, 12 weeks) it was 94.8 ± 9.4. The Waist-to-hip ratio worked out at 0.96 ± 0.1 in test [1] (metformin group, baseline) and 0.92 ± 0.07 in test [1] (metformin, 12 weeks). In addition, the “120′ OGTT glucose” value turned out to be 162.2 ± 27.8 mg/dL in test [2] (metformin group, baseline) and 140.6 ± 42.9 mg/dL in test [2] (metformin, 12 weeks). The HOMA sensitivity in test [3] (metformin group, baseline) is 37.4 ± 15.2%; in test [3] (setting [5]), 50.4 ± 23.2^b %; in test [3] (setting [6]), “improved”. Besides, the “Achieved C-peptide” value in test [4] (metformin group, baseline) was 5.2 ± 1.2 ng/mL; in test [4] (setting [5]), 4.2 ± 1.0^b ng/ml; in test [4] (setting [6]) it was “statistically lower”. Also, the Achieved glucose in test [4] (metformin group, baseline) is 190.5 ± 18.9 mg/dL; in test [4] (metformin, 12 weeks) it was 174.6 ± 34.5 mg/dL. The Achieved insulin in test [4] (metformin group, baseline) turned out to be 28.5 ± 13.5 mU/l; in test [4] (metformin, 12 weeks) it was 23.3 ± 7.6 mU/l. Besides, the “CIGMA beta cell function” value in test [4] (metformin group, baseline) is listed as 82.8 ± 24.0%; in test [4] (metformin, 12 weeks) it was 90.9 ± 34.0%; in test [4] (metformin, 12 weeks, listed as metformin) it was “not modified”. Also, the “BPI (circulating, plasma)” value is 2.75 ng/mL in the test with BPI (metformin group, baseline, median (interquartile range 1.26-7.73)); 7.49 ng/mL with BPI (metformin, 12 weeks, median (interquartile range 2.56-38.8), p = 0.017 within group); “significantly increased” with BPI (metformin, 12 weeks, median (interquartile range 2.56-38.8), p = 0.017 within group, listed as metformin).

B1: BPI: human purified bactericidal/permeability-increasing (BPI) protein, 456 residues, approximately 55 kD (protein, listed as Homo sapiens)
chain: VNPGVVVRISQKGLDYASQQGTAALQKELKRIKIPDYSDSFKIKHLGKGHYSFYSMDIREFQLPSSQISMVPNVGLKFSISNANIKISGKWKAQKRFLKMSGNFDLSIEGMSISADLKLGSNPTSGKPTITASSCSSHINSVHVHISKSKVGWLIQLFHKKIESALRNKMNSQVCEKVTNSVSSKLQPYFQTL
With B1, the “GLU (blood glucose concentration), Mean” value in the test with ob/ob mice (BPI treated group, day 0 (before the treatment)) was 342 ± 38 mg/dL and 341.67 mg/dL; with ob/ob mice (daily intraperitoneal 2.5 ng human purified BPI per gram body weight, 3 days of treatment), 289.00 mg/dL; in the test on ob/ob mice (daily intraperitoneal 2.5 ng human purified BPI per gram body weight, 6 days of treatment), 261 ± 21 mg/dL and 261.80 mg/dL. In addition, in the test with ob/ob mice (treatment for 3 or 6 days with 2.5 ng/g BPI i.p. daily, vs control), the Effect on glycemia entry is “pronounced decrease of glycemia”.
